The values below come from PMC11582173, “Synthesis, cytotoxicity, anti-inflammatory, anti-metastatic and anti-oxidant activities of novel chalcones incorporating 2-phenoxy-N-arylacetamide and thiophene moieties: induction of apoptosis in MCF7 and HEP2 cells” (Naunyn-Schmiedeberg's Archives of Pharmacology, 2024).

Converted amounts (≈) assume the structure as drawn. “And” between values parts separate entries of the source, which are not always exact repeats. Equal values may be shown once.

For experiment [1], the system named is P53. The experiment is described as follows: ELISA, P53 concentration. The class given is cell-based, human. Here is the method: (§1) The concentrations of matrix metalloproteinase-2 (MMP2), matrix metalloproteinase-9 (MMP9), Bcl2, BAX, P53, Malondialdehyde (MDA), Glutathione (GSH), caspase 8, caspase 9 and IL-6 were measured quantitatively in 5c treated MCF7 and HEP2 cells using ELISA (Enzyme-Linked Immunosorbent Assay) (Table 4). Gelatinases are a collective word for MMP-2 and MMP-9, where MMP-2 is gelatinase-A and MMP-9 is gelatinase-B. Solid tumor invasion, metastasis, and angiogenesis have long been linked to gelatinases (Das et al. [2021]). […] Bcl2 is a crucial protein that targets apoptosis inhibition. It is regarded as a predictive biomarker or therapeutic target in the diagnosis of cancer due to its broad expression in a variety of cancers (Porter et al. [2009]). […] The pro-apoptotic protein BAX permeabilizes the mitochondrial outer membrane by changing from a cytosolic monomer to a hazardous oligomer triggering the apoptosis process (Fulda and Debatin [2006]). […] P53 transcription factor performs an essential tumor suppressor role by coordinating a wide range of physiological responses, including DNA repair, cell cycle arrest, cellular senescence, cell death, cell differentiation, and metabolism (Liebl and Hofmann [2021]). It was activated in MCF7 and HEP2-treated cells with values (4.28 and 3.109 ng/mL), respectively, compared to their controls (3.44 and 2.06 ng/mL). […]

Experiment [2] has as its system Glutathione (GSH). Description: ELISA, GSH concentration. The class given is cell-based, human. Here is the method:
as §1
On the technique in general: ELISA stands for enzyme-linked immunosorbent assay.

Experiment [3] relates to human laryngeal carcinoma (HEP2) cells. The experiment is described as follows: SRB cytotoxic assay, HEP2. Type of experiment: cell-based. The settings on record: HEp-2, 48 h. Here is the method:
(§2) All the prepared compounds were screened at a concentration of 100 µg/mL against six different human cell lines: human laryngeal carcinoma (HEP2), human colorectal carcinoma (HCT116), human breast carcinoma (MCF7), human Lung carcinoma (A549), human liver carcinoma (HEPG2), and normal African Green monkey kidney cell line (VERO). Doxorubicin was used as a positive control for comparison purposes.
(§3) The human laryngeal carcinoma (HEP2), colorectal carcinoma (HCT116), breast carcinoma (MCF7), Lung carcinoma (A549), liver carcinoma (HEPG2), and normal African Green monkey kidney cell line (VERO) were purchased from American Tissue Culture Collection (Rockville, MD, USA). The cells were treated for 48 h with a single dose (100 µg/mL) of all the tested chalcones. […] In brief, the cells were seeded in a 96-well microtiter plate at a concentration of 5×10^3 cells/well in 100 µL fresh RPMI-1640 medium and left to attach to the plates for 24 h. Then, cells were incubated with 100 μL of different concentrations (50, 25, 12.5, 6.25, and 0.0 µg/mL) of 5c in triplicate at 37 °C for 48 h. After that, the cells were fixed with 10 µL cold 100% Trichloroacetic acid (TCA) for 1h at 4 °C. The wells were then washed 1 time with distilled water using (automatic Tecan washer, Germany) and stained for 30 min at room temperature with 50 µL 0.4% SRB dissolved in 1% acetic acid. The plates were air-dried and the dye was solubilized with 100 µl/well of 1M tris base (pH 10.5) for 5 min. The optical density (O.D.) of each well was measured spectrophotometrically at 570 nm with an ELISA microplate reader (Sunrise Tecan reader, Germany) with automatic shaking for 30 seconds before reading. The mean background absorbance was subtracted automatically and mean values for each drug concentration were calculated. The percentage of cell survival was calculated as follows: Survival fraction= O.D. (treated cells)/ O.D. (control cells) (Bhat et al. [2023]).
In general terms: Sulforhodamine B stains cellular protein and so reports cell mass.

The test system of experiment [4] is human Lung carcinoma (A549) cells. Description: SRB cytotoxic assay, A549. Type of experiment: cell-based. The settings on record: single dose 100 µg/mL, 48 h, read-out: %Inhibition at100 µg/mL A549. Here is the method: as §2, §3

By IC50 is commonly meant the midpoint of a concentration-inhibition curve. Regarding `COc1ccc(NC(=O)COc2ccc(C=CC(=O)c3cccs3)cc2)cc1` [Compound 5c, N-(4-Methoxyphenyl)-2-(4-(3-oxo-3-(thiophen-2-yl)prop-1-en-1-yl)phenoxy)acetamide], the P53 concentration was 3.109 ng/mL and 3.109 ± 0.089 ng/mL in experiment [1] (5c treated HEP2 cells, untreated 2.06±0.425); 4.28 ng/mL and 4.28 ± 0.188 ng/mL in experiment [1] (5c treated MCF7 cells, untreated 3.44±0.25). Also, the GSH concentration in experiment [2] (5c treated HEP2 cells, untreated 0.668±0.010) was 0.821 ng/mL and 0.821 ± 0.009 ng/mL; in experiment [2] (5c treated MCF7 cells, untreated 0.737±0.009) it was 0.939 ng/mL and 0.939 ± 0.022 ng/mL. The compound also showed a half-maximal inhibitory concentration (IC50) in experiment [3] of 12 µg/mL (≈ 30.5 µM). The inhibition at 100 µg/mL in experiment [3] (single dose 100 µg/mL, read-out: %Inhibition at100 µg/mL HEP2) was above 75%; in experiment [4], 65 ± 2.1%.
